Patent US4849434A, “Novel thiazolidin-4-one derivatives and acid addition salts therof” (Sumitomo Pharmaceuticals Company, Limited, priority 1986, dated 1989)
In brackets after ≈: the same amount, converted by molar mass. Read-outs that look alike come from different tables or passages of the source.

Tests used:
[1] = test system: rabbit platelet aggregation caused by PAF; experiment: Inhibition of PAF-induced platelet aggregation in vitro test; type: cell-based, rabbit (Japanese white crossbred male); details: rabbit PRP; for Specific activity relative to the activity of the compound of Example 1: inhibition of PAF-induced aggregation, compound of Example 1 = 1
Experimental: The inhibition of PAF-induced platelet aggregation was examined by use of a platelet-rich plasma [PRP] of a rabbit according to the method of Mustard et al. [J. F. Mustard et al., J. Lab. Clin. Med., 64, 548 (1964)], which is an improved version of the method of Born [G. V. R. Born, J. Physiol., London, 162, 67 (1962)]. Thus, 80 to 100 ml of blood per animal was collected from the carotid artery of a Japanese white crossbred male rabbit without anesthesia into a polyethylene vessel in which 1/10 the volume of a 3.8% sodium citrate solution had been placed beforehand. A portion (about 3 ml) of the blood thus collected was subjected to high speed centrifugation (11,000 rpm, 60 seconds) to obtain a platelet-poor plasma (PPP) as supernatant. The remainder of the blood was subjected to low speed centrifugation (1,000 rpm, 10 minutes) to obtain a platelet-richplasma (PRP) as supernatant.
The platelet aggregation was evaluated by nephelometry, the determination being made with PRP stirred at 1,000 rpm at 37° C. by use of an aggregater (Hematracer, Niko Bioscience Co.). The platelet aggregation activity was expressed in terms of the percent of light transmission, that of PRP being taken as 0% and that of PPP being taken as 100%. A 0.2 ml portion of PRP was placed in a glass cuvette containing a silicone-treatediron stirring rod, and 2 μl of dimethyl sulfoxide was added thereto. After 2 minutes, a PAF solution in 0.25% BSA physiological saline was added thereto to give a final concentration of PAF of […] and the maximum aggregation was determined. To examine the inhibitory activity of test compounds for the platelet aggregation caused by PAF, 2 μl of a test compound dissolved in dimethyl sulfoxide was added in place of dimethyl sulfoxide described above. The PAF inhibitory rate of a test compound was calculated according to the following equation: [formula]

[2] = test system: platelet aggregation caused by PAF; experiment: Inhibition of platelet aggregation, outside-living-body test (rabbit, intravenous); type: in vivo; details: Oryctolagus cuniculus, EC50 is of PAF, higher = more inhibition, read-out: EC50 value (PAF concentration necessary for causing an aggregation corresponding to 50% of the maximum PAF reaction)
Experimental: (§1) The test compound was intravenously administered (30 mg/kg) to a rabbit or orally administered (50 mg/kg) to a guinea pig. Blood samples were collected, and the extent of platelet aggregation caused by 10^-12 -10^-6 M of PAF was examined. The numerical values in the Table show the PAF concentrations (EC50 nM) necessary for causing an aggregation corresponding to 50% of the maximum PAF reaction.

[3] = test system: platelet aggregation caused by PAF; experiment: Inhibition of platelet aggregation, outside-living-body test (guinea pig, oral); type: in vivo; details: Cavia porcellus, EC50 is of PAF, higher = more inhibition, read-out: EC50 value (PAF concentration necessary for causing an aggregation corresponding to 50% of the maximum PAF reaction)
Experimental: as §1

Row | SMILES | Specific activity relative to the activity of the compound of Example 1 [1] | also measured
1 | C#CCN1C(=O)C(c2ccc(Cl)cc2)SC1c1cccnc1 (single isomer, unassigned) [Example 19] | 1.2 | –
2 | CC(=O)OCCN1C(=O)C(c2ccc(Cl)cc2)SC1c1cccnc1 (single isomer, unassigned) [Example 32] | 1.8 | –
3 | CN1C(=O)C(c2ccc(F)cc2)SC1c1cccnc1 (stereo not shown) [Example 4] | 1.3 | –
4 | CN1C(=O)C(c2ccccc2)SC1c1cccnc1 (stereo not shown) [Example 14] | 1.4 | –
5 | COc1ccc(CCN2C(=O)C(c3ccc(Cl)cc3)SC2c2cccnc2)cc1OC (single isomer, unassigned) [Example 21] | 2.2 | –
6 | CN1C(=O)C(c2ccc(Cl)cc2)SC1c1cccnc1 (stereo not shown) [Example 1, 5-(4-chlorophenyl)-3-methyl-2-(3-pyridyl)thiazolidin-4-one] | – | IC50 ([1]; Oryctolagus cuniculus, Platelet, PAF-induced aggregation): 5 µg/mL (≈ 16.4 µM); EC50 at 30 mg/kg ([2]; 0 hr after administration): 0.0062 µM; EC50 at 30 mg/kg ([2]; 0.5 hr after administration): 0.026 µM; EC50 at 30 mg/kg ([2]; 1 hr after administration): 0.02 µM; EC50 at 30 mg/kg ([2]; 2 hr after administration): 0.016 µM; EC50 at 30 mg/kg ([2]; 4 hr after administration): 0.014 µM; EC50 at 50 mg/kg ([3]; 0 hr after administration): 0.00023 µM; EC50 at 50 mg/kg ([3]; 0.5 hr after administration): 0.01 µM; EC50 at 50 mg/kg ([3]; 1 hr after administration): 0.017 µM; EC50 at 50 mg/kg ([3]; 2 hr after administration): 0.003 µM; EC50 at 50 mg/kg ([3]; 4 hr after administration): 0.001 µM
7 | CN1C(=O)C(c2c(Cl)cccc2Cl)SC1c1cccnc1 (stereo not shown) [Example 13] | 2.3 | –
8 | O=C1C(c2ccc(Cl)cc2)SC(c2cccnc2)N1CCCO (stereo not shown) [Example 27] | 0.6 | –
9 | CCN1C(=O)C(c2ccc(Cl)cc2)SC1c1cccnc1 (stereo not shown) [Example 15] | 0.5 | –
10 | CN1C(=O)C(c2cccc3ccccc23)SC1c1cccnc1 (stereo not shown) [Example 5] | 0.9 | –
11 | COc1ccc(C2SC(c3cccnc3)N(C)C2=O)cc1OC (stereo not shown) [Example 11] | 0.7 | –
12 | C=CCN1C(=O)C(c2ccc(Cl)cc2)SC1c1cccnc1 (single isomer, unassigned) [Example 17] | 1.0 | –
